Results from article doi:10.1101/2020.05.04.072892v1 (bioRxiv, 2020).

Test system: GBM6 cells
Assay: Nanoparticle internalization by flow cytometry, GBM6 cells
Format: cell-based, Human
Conditions: for cell internalization of free dye: average bulk FL of FAM with flow cytometry, over time

Molecule	cell internalization of free dye	cell internalization of free dye (listed as free FAM)	time of maximum DOX fluorescence in cells (average bulk FL of DOX by FCT) [h]
5,6-carboxyfluorescein [FAM]	cannot enter cells	no cell	
COc1cccc2c1C(=O)c1c(O)c3c(c(O)c1C2=O)C[C@@](O)(C(=O)CO)C[C@@H]3O[C@H]1C[C@H](N)[C@H](O)[C@H](C)O1 [free DOX, doxorubicin]			24
